The IC50 is the concentration that gives 50% inhibition.

Counter-ions that a name gives are not always drawn.

The target of the first test is hBTK (full-length BTK, 6HIS-tag cleaved) (Homo sapiens (Human), UniProt Q06187). The test can be described thus: BTK enzymatic activity, LANCE TR-FRET assay (Assay Method C). Particulars: LANCE TR-FRET, 50 pM hBTK, 25 μM ATP; class 100-1000 is given as ≧100 nM-<1 μM; read-out: IC50 Btk activity values - Assay Method C. It is filed as biochemical.
hBTK (full-length BTK, 6HIS-tag cleaved), sequence (Q06187 whole entry): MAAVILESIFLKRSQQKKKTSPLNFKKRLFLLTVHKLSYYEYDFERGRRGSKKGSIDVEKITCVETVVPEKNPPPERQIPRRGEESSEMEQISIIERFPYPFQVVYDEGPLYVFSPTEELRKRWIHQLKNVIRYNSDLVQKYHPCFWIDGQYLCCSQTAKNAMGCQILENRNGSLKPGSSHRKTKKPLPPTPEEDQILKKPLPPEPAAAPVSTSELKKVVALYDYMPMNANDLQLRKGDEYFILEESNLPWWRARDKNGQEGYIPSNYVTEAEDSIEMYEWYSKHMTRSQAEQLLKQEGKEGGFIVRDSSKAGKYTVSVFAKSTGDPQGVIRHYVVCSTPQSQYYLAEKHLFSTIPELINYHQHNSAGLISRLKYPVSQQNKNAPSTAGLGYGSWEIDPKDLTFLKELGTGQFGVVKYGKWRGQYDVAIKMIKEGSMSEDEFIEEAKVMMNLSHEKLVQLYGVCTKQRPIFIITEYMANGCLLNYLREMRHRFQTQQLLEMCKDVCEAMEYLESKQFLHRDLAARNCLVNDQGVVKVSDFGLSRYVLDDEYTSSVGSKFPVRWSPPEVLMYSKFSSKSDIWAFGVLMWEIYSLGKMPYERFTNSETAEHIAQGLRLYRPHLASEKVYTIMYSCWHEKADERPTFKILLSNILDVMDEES
Regarding `Nc1nccn2c([C@@H]3CCCN(C(=O)c4cnsn4)C3)nc(-c3ccc(C(=O)Nc4cc(C(F)(F)F)ccn4)cc3)c12` [Example 330, 4-{8-amino-3-[(3R)-1-(1,2,5-thiadiazol-3-ylcarbonyl)piperidin-3-yl]imidazo[1,5-a]pyrazin-1-yl}-N-[4-(trifluoromethyl)pyridin-2-yl]benzamide], the half-maximal inhibitory concentration (IC50) was less than 10 nM.

As for `C[C@H]1CC[C@@H](c2nc(-c3ccc(C(=O)Nc4cc(C(C)(F)F)ccn4)cc3)c3c(N)nccn23)CN1C(=O)C1(C)COC1` [Example 413, 4-(8-amino-3-{(3R,6S)-6-methyl-1-[(3-methyloxetan-3-yl)carbonyl]piperidin-3-yl}imidazo[1,5-a]pyrazin-1-yl)-N-[4-(1,1-difluoroethyl)pyridin-2-yl]benzamide], the IC50 is less than 10 nM. For the molecule `Cc1ccnc(NC(=O)c2ccc(-c3nn([C@@H]4CCCN(C(=O)C5(C)COC5)C4)c4ccnc(N)c34)cc2)c1` [Example 387, 4-(4-amino-1-{(3R)-1-[(3-methyloxetan-3-yl)carbonyl]piperidin-3-yl}-1H-pyrazolo[4,3-c]pyridin-3-yl)-N-(4-methylpyridin-2-yl)benzamide], the concentration for half-maximal inhibition (IC50) was less than 10 nM. The same measure, in the same setting: with `CS(=O)(=O)CC(=O)N1CCO[C@@H](c2nc(-c3ccc(C(=O)Nc4cc(C(F)(F)F)ccn4)cc3)c3c(N)nccn23)C1` [Example 545, 4-(8-amino-3-{(2R)-4-[(methylsulfonyl)acetyl]morpholin-2-yl}imidazo[1,5-a]pyrazin-1-yl)-N-[4-(trifluoromethyl)pyridin-2-yl]benzamide] the figure was less than 10 nM; with `Cc1cnc(N)c2c(-c3ccc(C(=O)Nc4cc(C(F)F)ccn4)cc3)nc([C@@H]3CCCN(C(=O)C4(C)COC4)C3)n12` [Example 458, 4-(8-amino-5-methyl-3-{(3R)-1-[(3-methyloxetan-3-yl)carbonyl]piperidin-3-yl}imidazo[1,5-a]pyrazin-1-yl)-N-[4-(difluoromethyl)pyridin-2-yl]benzamide], less than 10 nM; with `Nc1nccc2c1c(-c1ccc(C(=O)Nc3cc(C(F)(F)F)ccn3)cc1)nn2[C@@H]1CCCN(C(=O)C2CC2)C1` [Example 384, 4-{4-amino-1-[(3R)-1-(cyclopropylcarbonyl)piperidin-3-yl]-1H-pyrazolo[4,3-c]pyridin-3-yl}-N-[4-(trifluoromethyl)pyridin-2-yl]benzamide], less than 10 nM. On the same count and under the same terms, as for `COCCN1CCO[C@@H](c2nc(-c3ccc(C(=O)Nc4cc(C(F)(F)F)ccn4)cc3)c3c(N)ncc(C)n23)C1` [Example 539, 4-{8-amino-3-[(2R)-4-(2-methoxyethyl)morpholin-2-yl]-5-methylimidazo[1,5-a]pyrazin-1-yl}-N-[4-(trifluoromethyl)pyridin-2-yl]benzamide, TFA salt], the figure is less than 10 nM. The same measure, in the same setting: with `CC1(C(=O)N2CCO[C@@H](c3nc(-c4ccc(C(=O)Nc5cc(C(F)(F)F)ccn5)cc4F)c4c(N)nccn34)C2)COC1` [Example 513, 4-(8-amino-3-{(2R)-4-[(3-methyloxetan-3-yl)carbonyl]morpholin-2-yl}imidazo[1,5-a]pyrazin-1-yl)-3-fluoro-N-[4-(trifluoromethyl)pyridin-2-yl]benzamide, TFA salt] the figure was less than 10 nM; with `CC1(C(=O)N2CCC[C@@H](c3nc(-c4ccc(C(=O)Nc5ncns5)cc4)c4c(N)nccn34)C2)COC1` [Example 368, 4-(8-amino-3-{(3R)-1-[(3-methyloxetan-3-yl)carbonyl]piperidin-3-yl}imidazo[1,5-a]pyrazin-1-yl)-N-1,2,4-thiadiazol-5-ylbenzamide], 10 to 100 nM. On to `CC1(C(=O)N2CCC[C@@H](c3nc(-c4ccc(C(=O)Nc5cc(OC(F)F)ccn5)cc4F)c4c(N)nccn34)C2)COC1` [Example 478, 4-(8-amino-3-{(3R)-1-[(3-methyloxetan-3-yl)carbonyl]piperidin-3-yl}imidazo[1,5-a]pyrazin-1-yl)-N-[4-(difluoromethoxy)pyridin-2-yl]-3-fluorobenzamide], for which the half-inhibitory concentration (IC50) is less than 10 nM. On to `Nc1nccn2c([C@H]3CC[C@@H](CO)N(C(=O)C4CC4)C3)nc(-c3ccc(C(=O)Nc4cc(C(F)(F)F)ccn4)cc3)c12` [Example 419, 4-{8-amino-3-[(3S,6S)-1-(cyclopropylcarbonyl)-6-(hydroxymethyl)piperidin-3-yl]imidazo[1,5-a]pyrazin-1-yl}-N-[4-(trifluoromethyl)pyridin-2-yl]benzamide], for which the IC50 is less than 10 nM. In the case of `Nc1ncc(Cl)n2c([C@@H]3CCCN(C(=O)CO)C3)nc(-c3ccc(C(=O)Nc4cc(C(F)(F)F)ccn4)cc3)c12` [Example 441, 4-{8-amino-5-chloro-3-[(3R)-1-(hydroxyacetyl)piperidin-3-yl]imidazo[1,5-a]pyrazin-1-yl}-N-[4-(trifluoromethyl)pyridin-2-yl]benzamide], the IC50 was less than 10 nM. Still for that read-out and setting: as for `CC1(CN2CCC[C@@H](c3nc(-c4ccc(C(=O)Nc5cc(C(F)(F)F)ccn5)cc4)c4c(N)nccn34)C2)COC1` [Example 338, 4-(8-amino-3-{(3R)-[(3-methyloxetan-3-yl)methyl]piperidin-3-yl}imidazo[1,5-a]pyrazin-1-yl)-N-[4-(trifluoromethyl)pyridin-2-yl]benzamide], the figure is less than 10 nM. Still for that read-out and setting: with `Nc1ncc(Cl)n2c([C@@H]3CCCN(C=O)C3)nc(-c3ccc(C(=O)Nc4cc(C(F)(F)F)ccn4)cc3)c12` [Example 443, 4-{8-amino-5-chloro-3-[(3R)-1-formylpiperidin-3-yl]imidazo[1,5-a]pyrazin-1-yl}-N-[4-(trifluoromethyl)pyridin-2-yl]benzamide] the figure was less than 10 nM. As to `COCCOCC(=O)N1CCO[C@@H](c2nc(-c3ccc(C(=O)Nc4cc(C(F)(F)F)ccn4)cc3)c3c(N)ncc(Cl)n23)C1` [Example 529, 4-(8-amino-5-chloro-3-{(2R)-4-[(2-methoxyethoxy)acetyl]morpholin-2-yl}imidazo[1,5-a]pyrazin-1-yl)-N-[4-(trifluoromethyl)pyridin-2-yl]benzamide], the IC50 is less than 10 nM. As for `CC1(C(=O)N2CCC[C@@H](c3nc(-c4ccc(C(=O)Nc5ccc(F)cn5)cc4)c4c(N)nccn34)C2)COC1` [Example 351, 4-(8-amino-3-{(3R)-1-[(3-methyloxetan-3-yl)carbonyl]piperidin-3-yl}imidazo[1,5-a]pyrazin-1-yl)-N-(5-fluoropyridin-2-yl)benzamide], the IC50 fell in the range of 10 to 100 nM.

With `CCOCCC(=O)N1CCO[C@@H](c2nc(-c3ccc(C(=O)Nc4cc(C(F)(F)F)ccn4)cc3)c3c(N)nccn23)C1` [Example 503, 4-{8-amino-3-[(2R)-4-(3-ethoxypropanoyl)morpholin-2-yl]imidazo[1,5-a]pyrazin-1-yl}-N-[4-(trifluoromethyl)pyridin-2-yl]benzamide], the IC50 was less than 10 nM. On the same count and under the same terms, with `CCCOc1ccnc(NC(=O)c2ccc(-c3nc([C@@H]4CCCN(C(=O)C5(C)COC5)C4)n4ccnc(N)c34)c(F)c2)c1` [Example 481, 4-(8-amino-3-{(3R)-1-[(3-methyloxetan-3-yl)carbonyl]piperidin-3-yl}imidazo[1,5-a]pyrazin-1-yl)-3-fluoro-N-(4-propoxypyridin-2-yl)benzamide] the figure was less than 10 nM; with `C[C@H]1CC[C@@H](c2nc(-c3ccc(C(=O)Nc4cc(C(F)(F)F)ccn4)c(Cl)c3)c3c(N)nccn23)CN1C(=O)C1(C)COC1` [Example 400, 4-(8-amino-3-{(3R,6S)-6-methyl-1-[(3-methyloxetan-3-yl)carbonyl]piperidin-3-yl}imidazo[1,5-a]pyrazin-1-yl)-2-chloro-N-[4-(trifluoromethyl)pyridin-2-yl]benzamide], less than 10 nM; with `CCc1ccnc(NC(=O)c2ccc(-c3nn([C@@H]4CCCN(C(=O)C5(C)COC5)C4)c4ccnc(N)c34)cc2)c1` [Example 386, 4-(4-amino-1-{(3R)-1-[(3-methyloxetan-3-yl)carbonyl]piperidin-3-yl}-1H-pyrazolo[4,3-c]pyridin-3-yl)-N-(4-ethylpyridin-2-yl)benzamide], less than 10 nM. Still for that read-out and setting: as for `COc1ccnc(NC(=O)c2ccc(-c3nc([C@@H]4CCCN(C(C)=O)C4)n4c(C)cnc(N)c34)cc2)c1` [Example 460, 4-{3-[(3R)-1-acetylpiperidin-3-yl]-8-amino-5-methylimidazo[1,5-a]pyrazin-1-yl}-N-(4-methoxypyridin-2-yl)benzamide], the figure is less than 10 nM; as for `CC1(C(=O)N2CCC[C@@H](n3nc(-c4ccc(C(=O)Nc5cc(C(F)(F)F)ccn5)cc4)c4c(N)nccc43)C2)COC1` [Example 381, 4-(4-amino-1-{(3R)-1-[(3-methyloxetan-3-yl)carbonyl]piperidin-3-yl}-1H-pyrazolo[4,3-c]pyridin-3-yl)-N-[4-(trifluoromethyl)pyridin-2-yl]benzamide], less than 10 nM; as for `CC1(C(=O)N2CCC[C@@H](c3nc(-c4ccc(C(=O)Nc5cc(C(F)(F)F)ccn5)cc4)c4c(N)ncc(C(F)(F)F)n34)C2)COC1` [Example 470, 4-[8-amino-3-{(3R)-1-[(3-methyloxetan-3-yl)carbonyl]piperidin-3-yl}-5-(trifluoromethyl)imidazo[1,5-a]pyrazin-1-yl]-N-[4-(trifluoromethyl)pyridin-2-yl]benzamide], less than 10 nM. In the case of `Nc1nccn2c([C@H]3CN(C(=O)CO)CCO3)nc(-c3ccc(C(=O)Nc4cc(C(F)(F)F)ccn4)cc3)c12` [Example 517, 4-{8-amino-3-[(2R)-4-(hydroxyacetyl)morpholin-2-yl]imidazo[1,5-a]pyrazin-1-yl}-N-[4-(trifluoromethyl)pyridin-2-yl]benzamide], the IC50 is less than 10 nM. Still for that read-out and setting: as for `CC1(C(=O)N2CCC[C@@H](n3nc(-c4ccc(C(=O)Nc5cc(C(F)(F)F)ccn5)cc4)c4c(N)ncc(Cl)c43)C2)COC1` [Example 382, 4-(4-amino-7-chloro-1-{(3R)-1-[(3-methyloxetan-3-yl)carbonyl]piperidin-3-yl}-1H-pyrazolo[4,3-c]pyridin-3-yl)-N-[4-(trifluoromethyl)pyridin-2-yl]benzamide], the figure is less than 10 nM.

Still in this test, the particulars now being: Table D; Assay Method C (LANCE TR-FRET), 50 pM hBTK, 25 μM ATP; read-out: IC50 BTK activity value.
Consider `C[C@H]1CC[C@@H](c2nc(-c3ccc(C(=O)Nc4cc(C(C)(F)F)ccn4)cc3)c3c(N)nccn23)CN1C(=O)C1(C)COC1` [Example 413, 4-(8-amino-3-{(3R,6S)-6-methyl-1-[(3-methyloxetan-3-yl)carbonyl]piperidin-3-yl}imidazo[1,5-a]pyrazin-1-yl)-N-[4-(1,1-difluoroethyl)pyridin-2-yl]benzamide], for which the IC50 turned out to be 0.2 nM.

For the molecule `C[C@H]1CC[C@@H](c2nc(-c3ccc(C(=O)Nc4cc(C(F)(F)F)ccn4)c(Cl)c3)c3c(N)nccn23)CN1C(=O)C1(C)COC1` [Example 400, 4-(8-amino-3-{(3R,6S)-6-methyl-1-[(3-methyloxetan-3-yl)carbonyl]piperidin-3-yl}imidazo[1,5-a]pyrazin-1-yl)-2-chloro-N-[4-(trifluoromethyl)pyridin-2-yl]benzamide], the IC50 is 0.96 nM.

For the origin of these results see patent publication US9718828B2 (MERCK SHARP & DOHME CORP., priority 2011, dated 2017).
